Measured values: patent US5481013A, “Carboxylic acid derivatives” (Ciba-Geigy Corporation, priority 1992, dated 1996)

Tests used:
Format in all cases: in vivo
[1] = tested on: Nilaparvata lugens; assay: Activity against Nilaparvata lugens (spray on rice plants); conditions: 504 h, 400 ppm spray on rice plants, larvae in stages 2 and 3, evaluated after 21 days, read-out: percentage reduction in population (% activity)
Description: Rice plants are treated with a spray mixture prepared with an aqueous emulsion and comprising 400 ppm of the active ingredient. After the spray coating has dried on, the rice plants are populated with plant hopper larvae in stages 2 and 3. The test is evaluated after 21 days. The percentage reduction in population (% activity) is determined by comparing the number of surviving plant hoppers on the treated plants with the number of plant hoppers on the untreated plants. […] An activity of over 80% is shown, in particular, by compound Nos. 1.01, 2.01 to 2.03, 2.07, 2.08, 2.10 to 2.16, 2.20, 2.22, 2.23, 2.26, 3.01, 4.01 to 4.06, 4.20, 5.01 to 5.06, 5.08, 5.10 to 5.12, 5.15, 5.16 and 5.20 to 5.25.

[2] = tested on: Aphis craccivora; assay: Activity against Aphis craccivora; conditions: 400 ppm spray on pea seedlings, 20° C., evaluated after 3 and 6 days, read-out: percentage reduction in population (% activity)
Description: Pea seedlings are infected with Aphis craccivora, subsequently sprayed with a spray mixture comprising 400 ppm of the active ingredient, and incubated at 20° C. The test is evaluated after 3 and 6 days. The percentage reduction in population (% activity) is determined by comparing the number of dead aphids on the treated plants with those on the untreated plants.

[3] = tested on: Nilaparvata lugens; assay: Systemic activity against Nilaparvata lugens; conditions: 144 h, pots with rice plants in 400 ppm aqueous emulsion solution, larvae in stages 2 and 3, evaluated 6 days later, read-out: percentage reduction in population (% activity)
Description: Pots containing rice plants are placed into an aqueous emulsion solution comprising 400 ppm of the active ingredient. The rice plants are subsequently populated with larvae in stages 2 and 3. The test is evaluated 6 days later. The percentage reduction in population (% activity) is determined by comparing the numbers of plant hoppers on the treated plants with those on the untreated plants.

[4] = tested on: Panonychus ulmi (OP- and carb.- resistant); assay: Activity against Panonychus ulmi (OP- and carb.- resistant); conditions: 336 h, 400 ppm spray on apple seedlings, evaluated after 14 days, read-out: percentage reduction in population (% activity)
[5] = tested on: Nephotettix cincticeps; assay: Activity against Nephotettix cincticeps (spray on rice plants); conditions: 504 h, 400 ppm spray on rice plants, larvae in stages 2 and 3, evaluated 21 days later, read-out: percentage reduction in population (% activity)
Description: Rice plants are treated with a spray mixture prepared with an aqueous emulsion and comprising 400 ppm of the active ingredient. After the spray coating has dried on, the rice plants are populated with leaf hopper larvae in stages 2 and 3. The test is evaluated 21 days later. The percentage reduction in population (% activity) is determined by comparing the number of surviving leaf hoppers on the treated plants with those on the untreated plants.

[6] = tested on: Bemisia tabaci; assay: Activity against Bemisia tabaci; conditions: 336 h, 400 ppm spray on dwarf bean plants with nymphs, evaluated 14 days after application, read-out: activity (hatching percentages vs untreated control)
Description: Dwarf bean plants are placed into gauze cages and populated with adult Bemisia tabaci specimens (white fly). After oviposition has taken place, all adults are removed and, 10 days later, the plants with the nymphs located thereon are treated with a spray mixture of the active ingredients to be tested (concentration 400 ppm), which has been prepared with an aqueous emulsion. The test is evaluated for hatching percentages 14 days after the active ingredient has been applied by comparison with the untreated control batches. […] An activity of over 80% is shown, in particular, by compound Nos. 1.01, 2.01 to 2.08, 2.10 to 2.16, 2.22, 2.23, 3.01, 4.01, 4.02, 4.05, 4.06, 5.02, 5.03, 5.06 to 5.08, 5.10, 5.11, 5.20, 5.21 and 6.09.

[7] = tested on: Heliothis virescens caterpillars; assay: Activity against Heliothis virescens caterpillars; conditions: 144 h, 400 ppm spray on young soybean plants, first larval stage, evaluated after 6 days, read-out: percentage reduction in population or in feeding damage (% activity)
Description: Young soybean plants are sprayed with a spray mixture prepared with an aqueous emulsion and comprising 400 ppm of the active ingredient. After the spray coating has dried on, the soybean plants are populated with 10 Heliothis virescens in the first larval stage and placed into a plastic container. The test is evaluated after 6 days. The percentage reduction in population, or the percentage reduction in feeding damage (% activity), is determined by comparing the number of dead caterpillars and the feeding damage on the treated plants with those on the untreated plants.

[8] = tested on: adult Anthonomus grandis; assay: Activity against adult Anthonomus grandis; conditions: 72 h, 400 ppm spray on young cotton plants, adults, evaluated after 3 days, read-out: percentage reduction in population or in feeding damage (% activity)
[9] = tested on: Nephotettix cincticeps; assay: Systemic activity against Nephotettix cincticeps; conditions: 144 h, pots with rice plants in 400 ppm aqueous emulsion solution, larvae in stages 2 and 3, evaluated after 6 days, read-out: percentage reduction in population (% activity)
Description: Pots containing rice plants are placed into an aqueous emulsion solution comprising 400 ppm of the active ingredient. The rice plants are subsequently populated with larvae in stages 2 and 3. The test is evaluated after 6 days. The percentage reduction in population (% activity) is determined by comparing the number of leaf hoppers on the treated plants with those on the untreated plants.

[10] = tested on: Heliothis virescens; assay: Ovicidal/larvicidal activity on Heliothis virescens; conditions: 192 h, 400 ppm spray on eggs deposited on cotton, evaluated after 8 days, read-out: % reduction in population (hatching percentage of eggs and survival rate of caterpillars)
Description: Heliothis eggs which have been deposited on cotton are sprayed with a spray mixture prepared with an aqueous emulsion and comprising 400 ppm of the active ingredient. After 8 days, the hatching percentage of the eggs and the survival rate of the caterpillars are evaluated by comparing them with untreated control batches (% reduction in population).

O=C(CC=C(F)F)OCCOc1ccc(Oc2ccccc2)cc1 [Compound 1.01, 2-(4-phenoxyphenoxy)ethyl-4,4-difluorobut-3-enoate]
> 80%: activity at 400 ppm [1] | activity at 400 ppm [2] | activity at 400 ppm [3] | activity at 400 ppm [4] | activity at 400 ppm [5] | pest or weed control at 400 ppm [6] | activity at 400 ppm [7] | activity at 400 ppm [8] | activity at 400 ppm [9] | pest or weed control at 400 ppm [10]

O=C(CCCCCC=C(F)F)OCCOc1ccc(Oc2ccccc2)cc1 [Compound 3.01]
> 80%: activity at 400 ppm [1] | activity at 400 ppm [2] | activity at 400 ppm [3] | activity at 400 ppm [4] | activity at 400 ppm [5] | pest or weed control at 400 ppm [6] | activity at 400 ppm [7] | activity at 400 ppm [8] | activity at 400 ppm [9] | pest or weed control at 400 ppm [10]
